Reference: US7897349B2, “Macrophage migration inhibitory factor (MIF) as marker for urological inflammatory disease” (The United States of America as represented by the …, priority 2003, dated 2011)
Ends that are not written are not given here.

Assays:
prostate and bladder = system: prostate and bladder
Excerpt: In CPPS, prostatic inflammation is suspected to result in referred visceral pain and urodynamic changes. Therefore, we established a model of prostatitis that would allow the study of histological, molecular and physiological changes in the bladder and the prostate, in an effort to correlate it to visceral referred pain.

bladder = test: Substance P induced changes in CD74, CD44, p-ERK1/2 and MIF in the rat bladder; type: in vivo; conditions: subcutaneous SP 40 μg/kg; one hour
Experimental: The materials and methods are identical to Meyer-Siegler et al. (Journal of Urology 173: February, 2005), the disclosure of which is incorporated herein by reference. In anesthetized rats, the bladder was isolated by cutting the ureters and urine was replaced by saline as intraluminal fluid ([…]). One hour after subcutaneous SP (40 μg/kg) or saline administration, the ILF and bladder were collected. Bladder tissue was analyzed for CD74 and CD44 by immunohistochemistry. Western blot analysis determined the relative amounts of bladder tissue MIF, CD74, CD44, and p-ERK1/2. ILF immunoprecipitation followed by Western blot analysis was performed to identify an association of MIF with CD74 and/or CD44

bladder and the prostate = test: Systemic substance P (SP) model of neurogenic inflammation in the bladder and prostate; type: in vivo, rat
Excerpt: We sought to determine if neurogenic inflammation alone (without producing damage or insult to the bladder epithelia, as was the case in the acid and LPS cystitis models) was also able to alter MIF levels in the bladder. In addition, we examined the prostate for signs of inflammation. Systemic injections of SP elicited plasma extravasation and edema (neurogenic inflammation) in the bladder and the prostate. We examined MIF and cox-2 to compare the results with our previous models of bladder injury (acid and LPS). In addition, we examined nerve growth factor (NGF) and the proto-oncogene c-fos.

[1] = system: bladder, lumbosacral spinal cord, DRG and MPG; test: Intravesical bacterial endotoxin (LPS) model of bladder inflammation; type: in vivo, rat
Excerpt: Intravesical instillation of a bacterial endotoxin (lipopolysaccharide from E. Coli) has been documented to produce histological signs of bladder inflammation (Stein et al., J. Urol. 155: 1133-1138, 1996; Saban et al., Am. J Pathol. 160: 2095-2110, 2002; Wheeler et al., Eur. J Pharmacol. 417: 239-248, 2001). […] Therefore, we examined the effects of intravesical LPS on the levels of MIF and cox-2 on the bladder, lumbosacral spinal cord, DRG and MPG.

C=O [formalin]
MIF protein level in the bladder (prostate and bladder; animals receiving formalin in the prostate): significantly reduced | persistence of bladder hyperreflexia (prostate and bladder; chemical irritation of the prostate): at least 1 hour | bladder intercontraction interval (prostate and bladder; formalin injected into the prostate, maximal in first ten minutes, persisted 60 min): significant decrease

Substance P (RPKPQQFFGLM-NH2; ends and bridges not checked; UniProt P20366 58-68, looked up) [SP, tachykinin; systemic injection used as model of neurogenic inflammation]
CD74 and CD44 bladder immunostaining (bladder): increased | MIF release from the bladder (bladder): significant MIF release | total bladder CD74 protein and mRNA, intracellular domain CD44, p-ERK1/2 and soluble CD44 in the ILF (bladder): increased | cox-2 and c-fos levels in the bladder and the prostate (bladder and the prostate; SP group): significantly elevated | MIF levels in the urine and serum (bladder and the prostate; SP treated animals with isolated bladders): significantly increased | content of MIF in bladders and prostates (bladder and the prostate; SP treated compared to saline treated): marked decrease | edema in the lamina propria of the bladder (Mean) (bladder and the prostate; SP treated rats compared to saline treated rats, p<0.05): 2.69±0.1 | NGF levels in the prostate and the urine (bladder and the prostate; SP treated rats, not elevated in the bladder): significantly elevated

lipopolysaccharide from E. Coli [LPS]
histological changes of the bladder ([1]; intravesical LPS): marked histological changes indicative of cystitis | MIF protein and mRNA in all the tissues, including the bladder ([1]; intravesical LPS treated rats): significant increases
